One assay relates to tinzaparin. Briefly: FXa amidolytic assay (Example 10), tinzaparin. Particulars: read-out: Tinzap FXa EC50; tinzaparin 0.1 ug/ml; human antithrombin, bovine Factor Xa.
A further assay deals with enoxaparin. Briefly: FXa amidolytic assay (Example 10), enoxaparin. Particulars: read-out: Enox FXa EC50; enoxaparin 0.1 ug/ml; human antithrombin, bovine Factor Xa.
The subject of the next assay is fondaparinux. Description: FXa amidolytic assay (Example 10), fondaparinux. Particulars: read-out: Fondap FXa EC50; fondaparinux 0.02 μg/mL; human antithrombin, bovine Factor Xa.
For a further assay, the system named is Unfractionated heparin. Description: aPTT clotting assay, UFH 0.4 U/mL in plasma (Example 10). Particulars: unfractionated heparin 0.4 U/mL in plasma; aPTT clotting. The format is biochemical. The protocol: aPTT clotting Assay: Unfractionated heparin was mixed with plasma at a final concentration of 0.4 U/mL (or concentration which increases aPTT time to between 120 and 300 seconds). […] The ACL Elite Hemostasis analyzer (Beckman Coulter™) was used to add aPTT reagent (HemosIL SynthASil) to supplemented plasma. Clotting was initiated by addition of CaCl2 and time to clot was recorded.

Drawing on patent publication US20110178104A1, “Anti-Heparin Compounds” (POLYMEDIX INC., priority 2010, published 2011), this text covers EC50 for 24 compounds.

The structures appear in SMILES notation. Where “and” joins values, the source holds several entries; their conditions need not be identical. Identical values can stand only once.

Procedure for enoxaparin: (§1) Two μl of test agent are added (range between 0.01 and 23 ug/ml) and incubated for 5 minutes at 23° C. Bovine Factor Xa was added to a final concentration of 0.636 nkat/mL and incubated for a further 10 minutes at 23° C.
Procedure for fondaparinux: as §1
Procedure for tinzaparin: as §1

As to `COc1cc(OC)c(C(=O)N[C@H]2CC[C@@H](NC(=O)c3cc(C(=O)N4CCC(N)CC4)c(OCCCCCN)cc3OCCCCCN)CC2)cc1C(=O)N[C@H]1CC[C@@H](NC(=O)c2cc(C(=O)N3CCC(N)CC3)c(OCCCCCN)cc2OCCCCCN)CC1` [Compound 426], the EC50 was 0.53 µM with tinzaparin, 2.75 µM in the assay on enoxaparin, more than 10 µM in the assay with fondaparinux and 11.3 µM in the assay on Unfractionated heparin.
The matching figures for `COc1ccc(NC(=O)[C@H](CCCCN)NC(=O)c2cc(NC(=O)[C@@H](N)CCCCN)ccc2OC)cc1C(=O)N[C@@H](CCCCN)C(=O)Nc1ccc(OC)c(C(=O)N[C@@H](CCCCN)C(=O)Nc2ccc(OC)c(C(=O)N[C@H](C(=O)O)C(C)C)c2)c1` [Compound 267]: 0.313 µM, 0.543 µM, 6.99 µM and 1.67 µM.
The matching figures for `COc1ccc(NC(=O)[C@H](CCCCN)NC(=O)c2cc(C(=O)N[C@@H](CCCCN)C(=O)Nc3ccc(OC)c(C(=O)N[C@@H](CCCCN)C(N)=O)c3)c(OC)cc2OC)cc1C(=O)N[C@@H](CCCCN)C(N)=O` [Compound 427]: more than 5 µM, more than 5 µM, more than 10 µM and more than 10 µM.
As for `COc1ccc(NC(=O)[C@H](CCCCN)NC(=O)c2cc(NC(=O)[C@H](CCCCN)NC(=O)c3cc(NC(=O)[C@H](CCCCN)NC(=O)c4cc(NC(=O)[C@@H](N)CCCNC(N)=O)ccc4OC)ccc3OC)ccc2OC)cc1C(N)=O` [Compound 256], the EC50 turned out to be 0.151 µM in the assay with tinzaparin, 0.233 µM in the assay with enoxaparin, 2.5 µM in the assay on fondaparinux and 1.45 µM in the assay with Unfractionated heparin.
On the same counts, the results for `COc1cc(OC)c(C(=O)N[C@H]2CC[C@H](NC(=O)c3cc(C(=O)NCCN(C)C)c(OCCCCCN)cc3OCCCCCN)CC2)cc1C(=O)NCCN(C)C` [Compound 228] are more than 5 µM, 0.281 µM, more than 10 µM and 1.11 µM.
The matching figures for `COc1ccc(NC(=O)[C@H](CCCCN)NC(=O)c2cc(NC(=O)[C@H](CCCCN)NC(=O)c3cc(NC(=O)[C@H](CCCCN)NC(=O)c4cc(NC(=O)[C@H](CCCCN)NC(=O)c5cccc(C(=O)O)c5)ccc4OC)ccc3OC)ccc2OC)cc1C(N)=O` [Compound 342]: 0.147 µM, 0.153 µM, 0.167 µM and 2.35 µM.
On the same counts, the results for `COc1cc(OC)c(C(=O)N[C@H]2CC[C@@H](NC(=O)c3cc(C(=O)N[C@H]4CC[C@@H](NC(=O)c5cc(C(=O)NC6CCNCC6)c(OC)cc5OC)CC4)c(OC)cc3OC)CC2)cc1C(=O)NC1CCNCC1` [Compound 417] are 0.2 µM, 0.495 µM, 1.11 µM and 2.22 µM.
As for `COc1ccc(NC(=O)[C@H](CCCNC(=N)N)NC(=O)c2cc(NC(=O)[C@H](CCCNC(=N)N)NC(=O)c3cc(NC(=O)[C@H](CCCNC(=N)N)NC(=O)c4cc(NC(C)=O)ccc4OC)ccc3OC)ccc2OC)cc1C(=O)N[C@@H](Cc1ccc(O)cc1)C(=O)O` [Compound 301], the EC50 in the assay with tinzaparin was determined as 0.278 µM; in the assay on enoxaparin it was 0.276 µM; in the assay on fondaparinux it was 0.295 µM; with Unfractionated heparin it was 6.08 µM.
On the same counts, the results for `COc1ccc(NC(=O)[C@H](CCCCN)NC(=O)c2cc(NC(=O)[C@@H](N)CCCCN)ccc2OC)cc1C(=O)N[C@@H](CCCCN)C(=O)Nc1ccc(OC)c(C(=O)N[C@@H](CCCCN)C(=O)Nc2ccc(OC)c(C(=O)N[C@H](C)C(=O)O)c2)c1` [Compound 277] are 0.285 µM, 0.581 µM, 10.8 µM and 1.55 µM.
With `COc1ccc(NC(=O)[C@H](CCCCN)NC(=O)c2cc(NC(=O)[C@H](CCCCN)NC(=O)c3cc(NC(=O)[C@H](CCCCN)NC(=O)c4cc(NC(=O)[C@@H](N)CCCCN)ccc4OC)ccc3SC)ccc2OC)cc1C(N)=O` [Compound 251], the EC50 in the assay with tinzaparin is more than 5 µM; in the assay on enoxaparin it was more than 5 µM; in the assay with fondaparinux, more than 10 µM; in the assay on Unfractionated heparin, more than 10 µM.
On to `COc1ccc(NC(=O)[C@H](CCCCN)NC(=O)c2cc(NC(=O)[C@H](CCCCN)NC(=O)c3cc(NC(=O)[C@H](CCCCN)NC(=O)c4cc(N)ccc4OC)ccc3OC)ccc2OC)cc1C(N)=O` [Compound 327], for which the concentration giving a half-maximal response (EC50) was 0.47 µM in the assay with tinzaparin, 1.03 µM in the assay on enoxaparin, 6.77 µM in the assay on fondaparinux and 1.93 µM in the assay with Unfractionated heparin.
For `COc1ccc(NC(=O)[C@H](CCCCN)NC(=O)c2cc(NC(=O)[C@H](CCCCN)NC(=O)c3cc(NC(=O)[C@H](CCCCN)NC(=O)c4ccc(NC(=O)[C@@H](N)CCCCN)cc4)ccc3OC)ccc2OC)cc1C(N)=O` [Compound 241], the EC50 in the assay on tinzaparin was 0.167 µM; in the assay on enoxaparin it was 0.431 µM; with fondaparinux, more than 10 µM; in the assay on Unfractionated heparin, 5.44 µM.
The matching figures for `COc1ccc(NC(=O)[C@H](CCCCN)NC(=O)c2cc(NC(=O)[C@H](CCCCN)NC(=O)c3cc(NC(=O)[C@H](CCCCN)NC(=O)c4cc(NC(=O)[C@@H](N)CCCCN)ccc4OC)ccc3OC)ccc2OCC(=O)O)cc1C(N)=O` [Compound 270]: 0.349 µM, 0.533 µM, 4.05 µM and 1.25 µM.
For `COc1ccc(NC(=O)[C@H](CCCCN)NC(=O)c2cc(NC(=O)[C@H](CCCCN)NC(=O)c3cc(NC(=O)[C@H](CCCCN)NC(=O)c4cc(NC(=O)[C@H](N)CCCCN)ccc4OC)ccc3OC)ccc2OC)cc1C(N)=O` [Compound 231], the concentration for a half-maximal effect (EC50) with tinzaparin came out at 0.099 µM; in the assay on enoxaparin it was 0.192 µM; in the assay with fondaparinux, 3.56 µM; in the assay on Unfractionated heparin, 2.31 µM.
On to `COc1ccc(NC(=O)[C@@H](CCC(=O)O)NC(=O)c2cc(NC(=O)[C@@H](CCCNC(=N)N)NC(=O)c3cc(NC(=O)[C@@H](CCCNC(=N)N)NC(=O)c4cc(NC(=O)[C@H](N)CCCNC(=N)N)ccc4OC)ccc3OC)ccc2OC)cc1C(N)=O` [Compound 319], for which the EC50 in the assay on tinzaparin worked out at 0.178 µM; with enoxaparin, 0.276 µM; in the assay with fondaparinux it was 1.05 µM; in the assay with Unfractionated heparin it was 2.44 µM.
For `COc1ccc(NC(=O)[C@H](CCCCN)NC(=O)c2cc(NC(=O)[C@H](CCCCN)NC(=O)c3cc(NC(=O)[C@H](CCCCN)NC(=O)c4cc(NC(=O)[C@@H](N)CCCCN)ccc4SC)ccc3OC)ccc2OC)cc1C(N)=O` [Compound 245], the EC50 was 0.118 µM and 0.125 µM with tinzaparin; 0.256 µM and 0.224 µM in the assay with enoxaparin; 4.01 µM and 3.19 µM with fondaparinux; 1.31 µM and 1.46 µM with Unfractionated heparin.
As for `COC(=O)c1cc(NC(=O)[C@H](CCCCN)NC(=O)c2cc(NC(=O)[C@H](CCCCN)NC(=O)c3cc(NC(=O)[C@H](CCCCN)NC(=O)c4cc(NC(=O)[C@@H](N)CCCCN)ccc4OC)ccc3OC)ccc2OC)ccc1OC` [Compound 249], the EC50 in the assay on tinzaparin was found to be 0.215 µM; with enoxaparin, 0.466 µM; in the assay on fondaparinux, 10.6 µM; in the assay on Unfractionated heparin, 1.42 µM.
The matching figures for `COc1ccc(NC(=O)[C@H](CCCCN)NC(=O)c2cc(NC(=O)[C@H](CCCCN)NC(=O)c3cc(NC(=O)[C@H](CCCCN)NC(=O)c4c[nH]c5ccccc45)ccc3OC)ccc2OC)cc1C(N)=O` [Compound 238]: 0.581 µM, 0.839 µM, 1.86 µM and 5.34 µM.
For the compound `COc1ccc(NC(=O)[C@H](CCCCN)NC(=O)c2cc(NC(=O)[C@H](CCCCN)NC(=O)c3cc(NC(=O)[C@H](CCCCN)NC(=O)c4ccc(NC(=O)[C@@H](N)CCCCN)cc4OC)ccc3OC)ccc2OC)cc1C(N)=O` [Compound 244], the EC50 in the assay on tinzaparin worked out at 0.113 µM; in the assay with enoxaparin, 0.229 µM; in the assay with fondaparinux, 4.71 µM; in the assay on Unfractionated heparin it was 1.46 µM.
On the same counts, the results for `COc1ccc(NC(=O)[C@H](CCCCN)NC(=O)c2cc(NC(=O)[C@@H](N)CCCCN)ccc2OC)cc1C(=O)N[C@@H](CCCCN)C(=O)Nc1ccc(OC)c(C(=O)N[C@@H](CCCCN)C(=O)Nc2ccc(OC)c(C(=O)N[C@H](Cc3ccccc3)C(=O)O)c2)c1` [Compound 264] are 0.365 µM, 0.731 µM, more than 10 µM and 1.38 µM.
On the same counts, the results for `COc1cc(OC)c(C(=O)NCCCNC(=O)c2cc(C(=O)NCCCNC(=O)c3cc(C(=O)NCCCN)c(OC)cc3OC)c(OC)cc2OC)cc1C(=O)NCCCN` [Compound 408] are more than 5 µM, more than 5 µM, more than 10 µM and more than 10 µM.
`COc1ccc(NC(=O)[C@H](CCCCN)NC(=O)c2cc(NC(=O)[C@H](CCCCN)NC(=O)c3cc(NC(=O)[C@H](CCCCN)NC(=O)c4cc(NC(=O)[C@@H](N)CCCCN)ccc4OC)ccc3OCC(=O)O)ccc2OC)cc1C(N)=O` [Compound 271]: the EC50 was found to be 0.135 µM in the assay with tinzaparin, 0.219 µM with enoxaparin, 3.12 µM with fondaparinux and 1.64 µM in the assay with Unfractionated heparin.
On the same counts, the results for `COc1ccc(NC(=O)[C@H](CCCCN)NC(=O)c2cc(NC(=O)[C@H](CCCCN)NC(=O)c3cc(NC(=O)[C@H](CCCCN)NC(=O)c4cc(NC(=O)[C@@H](N)CCCCN)ccc4OC)ccc3OC)ccc2OC)cc1C(=O)N[C@@H](CCCNC(N)=O)C(=O)O` [Compound 273] are 0.202 µM, 0.319 µM, 3.8 µM and 1.55 µM.
The matching figures for `COc1cc(OC)c(C(=O)N[C@H]2CC[C@@H](NC(=O)c3cc(C(=O)N4CCC(N)CC4)c(OC)cc3OC)CC2)cc1C(=O)N[C@H]1CC[C@@H](N=C(N(C)C)N(C)C)CC1` [Compound 420]: more than 5 µM, more than 5 µM, more than 10 µM and more than 10 µM.

Usually EC50 stands for the concentration at which the effect is half-maximal.
